This is an account of results in US9133183B2, “Imidazolidinones and analogs exhibiting anti-cancer and anti-proliferative activities” (Deciphera Pharmaceuticals, LLC, priority 2013, dated 2015).

Like-named read-outs stand apart in the source and are kept apart here.

In experiment [1] the target is unphosphorylated PDGFRβ kinase (uPDGFRβ, Seq. ID No. 3) (Homo sapiens (Human), UniProt P09619). The experiment can be described thus: Unphosphorylated PDGFRβ kinase assay (coupled pyruvate kinase/lactate dehydrogenase). The following applies: enzymatic assay, ATP 500 μM. It counts as biochemical. The method, then: Unphosphorylated PDGFRβ (uPDGFRβ) Kinase (Seq. ID No. 3) Assay
Activity of unphosphorylated PDGFRβ kinase (uPDGFRβ, Seq. ID No. 3) was determined by following the production of ADP from the kinase reaction with ATP and poly E4Y as substrates through coupling with the pyruvate kinase/lactate dehydrogenase system (e.g., Schindler et al. Science (2000) 289: 1938-1942). In this assay, the oxidation of NADH (thus the decrease at A340 nm) was continuously monitored spectrophometrically. The reaction mixture (100 μL) contained PDGFRβ (DeCode, 15.7 nM), polyE4Y (2.5 mg/mL), MgCl2 (10 mM), pyruvate kinase (4 units), lactate dehydrogenase (0.7 units), phosphoenol pyruvate (1 mM) and NADH (0.28 mM) and ATP (500 μM) in a 90 mM Tris buffer containing 0.2% octyl-glucoside and 1% DMSO, at pH 7.5. The inhibition reaction was started by mixing serial diluted test compound with the above reaction mixture. The absorption at 340 nm was monitored continuously for 4 h at 30° C. on a Polarstar Optima or Synergy 2 plate reader. The reaction rate was calculated using the 1.5 to 2.5 h time frame. Percent inhibition was obtained by comparison of reaction rate with that of a control (i.e., with no test compound). IC50 values were calculated from a series of percent inhibition values determined at a range of inhibitor concentrations using software routines as implemented in the GraphPad Prism software package.
uPDGFRβ Kinase Sequence (Residues 557-1106) Used for Screening (Seq ID No. 3)

For experiment [2], the target named is unphosphorylated c-KIT kinase (uKIT, Seq. ID no. 2) (Homo sapiens (Human), UniProt P10721). The experiment can be described thus: uKit kinase assay (coupled pyruvate kinase/lactate dehydrogenase). The class given is biochemical. The conditions noted are these: enzymatic assay, ATP 2000 μM. The method, boiled down: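 Unphosphorylated KIT (12 nM, N-terminal GST fusion) was run with 1 mg/mL polyE4Y, 2000 μM ATP and 10 mM MgCl2 in Tris buffer (pH 7.5, 0.2% octyl-glucoside, 1% DMSO). ADP was coupled via PK/LDH, with NADH loss tracked at A340 for 4 h at 30 °C. Rates at 3–4 h gave % inhibition and IC50.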

For a further experiment, the system named is osteoclast precursors. The experiment can be described thus: Osteoclast tartrate-resistant acid phosphatase assay. It counts as cell-based. The conditions noted are these: 7-14 days, RANKL and M-CSF.
The test system of the next experiment is M-NFS-60 cells. The experiment can be described thus: M-NFS-60 cell proliferation assay (resazurin). The following applies: 67 h incubation. The class given is cell-based. The method, boiled down:
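Cells kept in medium containing 20 ng/mL mouse recombinant M-CSF. Fluorescence was read at ex 540/em 600 nm, and IC50 was fitted from percent inhibition across a range of inhibitor concentrations.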
(In general: Alamar Blue is a resazurin reagent that responds to reducing activity.)

In experiment [3] the target is unphosphorylated c-FMS kinase (uFMS, Seq. ID no. 1) (Homo sapiens (Human), UniProt P07333). The experiment can be described thus: uFMS kinase assay (ADP production coupled to pyruvate kinase/lactate dehydrogenase). The class given is biochemical. The conditions noted are these: enzymatic assay, ATP 500 μM. The essentials:
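Unphosphorylated FMS (10 nM) with polyE4Y 1 mg/mL and 500 μM ATP in 90 mM Tris pH 7.5, 10 mM MgCl2, 0.2% octyl-glucoside, 1% DMSO. ADP formation was coupled via pyruvate kinase/LDH to NADH oxidation, followed at A340 for 4 h at 30° C.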

unphosphorylated PDGFRβ kinase (uPDGFRβ, Seq. ID No. 3), sequence (P09619 557-1106): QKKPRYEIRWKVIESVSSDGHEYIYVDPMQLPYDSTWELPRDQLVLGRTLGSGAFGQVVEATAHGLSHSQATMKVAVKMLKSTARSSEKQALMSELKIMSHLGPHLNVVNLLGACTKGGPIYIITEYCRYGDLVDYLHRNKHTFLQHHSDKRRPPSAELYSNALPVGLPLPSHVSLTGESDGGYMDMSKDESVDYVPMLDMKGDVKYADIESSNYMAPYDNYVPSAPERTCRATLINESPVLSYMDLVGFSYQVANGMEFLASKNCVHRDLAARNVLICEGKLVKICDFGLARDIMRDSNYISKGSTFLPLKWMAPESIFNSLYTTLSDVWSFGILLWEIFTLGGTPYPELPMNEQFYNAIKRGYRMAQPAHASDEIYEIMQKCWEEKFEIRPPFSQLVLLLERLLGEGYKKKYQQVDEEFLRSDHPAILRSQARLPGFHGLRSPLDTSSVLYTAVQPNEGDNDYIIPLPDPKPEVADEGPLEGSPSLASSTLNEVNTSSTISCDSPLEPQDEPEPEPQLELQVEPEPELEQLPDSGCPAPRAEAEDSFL
unphosphorylated c-FMS kinase (uFMS, Seq. ID no. 1), sequence (P07333 538-972): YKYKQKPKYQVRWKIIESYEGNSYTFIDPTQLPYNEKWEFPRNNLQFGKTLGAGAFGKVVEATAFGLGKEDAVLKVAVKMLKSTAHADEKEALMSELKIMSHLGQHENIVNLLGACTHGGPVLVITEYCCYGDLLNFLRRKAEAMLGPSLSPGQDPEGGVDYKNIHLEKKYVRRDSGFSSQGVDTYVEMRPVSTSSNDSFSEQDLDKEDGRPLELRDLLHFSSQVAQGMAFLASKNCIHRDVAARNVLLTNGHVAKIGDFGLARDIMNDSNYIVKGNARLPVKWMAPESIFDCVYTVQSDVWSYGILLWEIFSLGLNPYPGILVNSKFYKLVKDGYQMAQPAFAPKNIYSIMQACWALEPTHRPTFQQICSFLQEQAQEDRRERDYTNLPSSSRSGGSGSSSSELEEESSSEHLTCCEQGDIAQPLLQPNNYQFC
unphosphorylated c-KIT kinase (uKIT, Seq. ID no. 2), sequence (P10721 other isoform, or with tags, fused parts or gaps): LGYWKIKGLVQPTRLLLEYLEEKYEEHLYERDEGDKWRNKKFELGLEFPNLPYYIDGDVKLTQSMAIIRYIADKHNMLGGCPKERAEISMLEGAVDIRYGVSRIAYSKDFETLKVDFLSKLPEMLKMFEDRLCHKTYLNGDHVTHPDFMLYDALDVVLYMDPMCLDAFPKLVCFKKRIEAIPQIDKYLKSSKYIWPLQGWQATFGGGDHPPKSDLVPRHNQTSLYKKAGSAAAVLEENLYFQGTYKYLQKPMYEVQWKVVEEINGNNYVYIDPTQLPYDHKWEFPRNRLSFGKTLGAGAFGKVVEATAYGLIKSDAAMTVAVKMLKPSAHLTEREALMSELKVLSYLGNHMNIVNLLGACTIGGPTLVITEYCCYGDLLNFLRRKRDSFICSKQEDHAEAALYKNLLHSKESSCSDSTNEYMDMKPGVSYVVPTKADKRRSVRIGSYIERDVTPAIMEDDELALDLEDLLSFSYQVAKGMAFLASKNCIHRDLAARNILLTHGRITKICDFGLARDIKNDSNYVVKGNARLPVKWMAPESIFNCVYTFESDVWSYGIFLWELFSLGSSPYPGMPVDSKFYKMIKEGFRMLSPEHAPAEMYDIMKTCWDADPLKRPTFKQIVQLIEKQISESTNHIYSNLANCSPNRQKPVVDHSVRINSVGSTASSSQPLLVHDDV

On to `CC(C)N1CCN(C(=O)Nc2ncc(Oc3ccnc(-c4cnn(C)c4)c3)cn2)C1=O` [Example 2, 3-isopropyl-N-(5-((2-(1-methyl-1H-pyrazol-4-yl)pyridin-4-yl)oxy)pyrimidin-2-yl)-2-oxoimidazolidine-1-carboxamide], for which the IC50 is greater than 1 µM in experiment [1]; 0.01 to 0.1 µM in experiment [2]; less than 0.01 µM with osteoclast precursors (Osteoclast); 0.01 to 0.1 µM with M-NFS-60 cells; 0.01 to 0.1 µM in experiment [3] (read-out: uFMS).
`COC(C)(C)CCN1CCN(C(=O)Nc2ccc(Oc3ccnc(-c4cnn(C)c4)c3)cn2)C1=O` [Example 24, 3-(3-methoxy-3-methylbutyl)-N-(5-((2-(1-methyl-1H-pyrazol-4-yl)pyridin-4-yl)oxy)pyridin-2-yl)-2-oxoimidazolidine-1-carboxamide]: the IC50 in experiment [1] was 0.1 to 1 µM; in experiment [2], 0.01 to 0.1 µM; with osteoclast precursors (Osteoclast) it was 0.01 to 0.1 µM; in the experiment with M-NFS-60 cells it was 0.01 to 0.1 µM; in experiment [3] (read-out: uFMS), 0.01 to 0.1 µM.
On to `Cc1nc(NC(=O)N2CCN([C@@H]3CCOC3)C2=O)ccc1Oc1ccnc(-c2cnn(C)c2)c1` [Example 28, (R)—N-(6-methyl-5-((2-(1-methyl-1H-pyrazol-4-yl)pyridin-4-yl)oxy)pyridin-2-yl)-2-oxo-3-(tetrahydrofuran-3-yl)imidazolidine-1-carboxamide], for which the IC50 in experiment [1] was greater than 1 µM; in experiment [2] it was 0.1 to 1 µM; in the experiment with osteoclast precursors it was less than 0.01 µM; in the experiment with M-NFS-60 cells, 0.01 to 0.1 µM; in experiment [3] (uFMS), less than 0.01 µM.
Consider `Cn1cc(-c2cc(Oc3ccc(NC(=O)N4CCN(C5CCCC5)C4=O)nc3)ccn2)cn1` [Example 30, 3-cyclopentyl-N-(5-((2-(1-methyl-1H-pyrazol-4-yl)pyridin-4-yl)oxy)pyridin-2-yl)-2-oxoimidazolidine-1-carboxamide], for which the IC50 in experiment [1] was 0.1 to 1 µM; in experiment [2], less than 0.01 µM; with osteoclast precursors (Osteoclast), less than 0.01 µM; in the experiment on M-NFS-60 cells it was less than 0.01 µM; in experiment [3] (read-out: uFMS), less than 0.01 µM.
Consider `CN1CCN(C(=O)Nc2ccc(Oc3ccnc(-c4cnn(C)c4)c3)cn2)C1=O` [Example 44, 3-methyl-N-(5-((2-(1-methyl-1H-pyrazol-4-yl)pyridin-4-yl)oxy)pyridin-2-yl)-2-oxoimidazolidine-1-carboxamide], for which the IC50 is greater than 1 µM in experiment [1]; 0.1 to 1 µM in experiment [2]; 0.01 to 0.1 µM in the experiment on osteoclast precursors (Osteoclast); 0.1 to 1 µM in the experiment on M-NFS-60 cells; 0.01 to 0.1 µM in experiment [3] (read-out: uFMS).
As to `CCN1CCN(C(=O)Nc2ccc(Oc3ccnc(-c4cnn(C)c4)c3)cn2)C1=O` [Example 45, 3-ethyl-N-(5-((2-(1-methyl-1H-pyrazol-4-yl)pyridin-4-yl)oxy)pyridin-2-yl)-2-oxoimidazolidine-1-carboxamide], the IC50 in experiment [1] is greater than 1 µM; in experiment [2], 0.01 to 0.1 µM; with osteoclast precursors (Osteoclast) it was less than 0.01 µM; in the experiment on M-NFS-60 cells, 0.01 to 0.1 µM; in experiment [3] (read-out: uFMS), less than 0.01 µM.
Turning to `Cn1cc(-c2cc(Oc3ccc(NC(=O)N4CCN(C5CC5)C4=O)nc3)ccn2)cn1` [Example 46, 3-cyclopropyl-N-(5-((2-(1-methyl-1H-pyrazol-4-yl)pyridin-4-yl)oxy)pyridin-2-yl)-2-oxoimidazolidine-1-carboxamide], the IC50 in experiment [1] is 0.1 to 1 µM; in experiment [2], 0.01 to 0.1 µM; with osteoclast precursors (Osteoclast), less than 0.01 µM; in the experiment on M-NFS-60 cells, 0.01 to 0.1 µM; in experiment [3] (read-out: uFMS) it was less than 0.01 µM.
As for `Cc1nc(NC(=O)N2CCN(C3CC3)C2=O)ccc1Oc1ccnc(-c2cnn(C)c2)c1` [Example 47, 3-cyclopropyl-N-(6-methyl-5-((2-(1-methyl-1H-pyrazol-4-yl)pyridin-4-yl)oxy)pyridin-2-yl)-2-oxoimidazolidine-1-carboxamide], the IC50 in experiment [1] was greater than 1 µM; in experiment [2] it was 0.1 to 1 µM; with osteoclast precursors (Osteoclast) it was less than 0.01 µM; with M-NFS-60 cells it was 0.01 to 0.1 µM; in experiment [3] (read-out: uFMS) it was less than 0.01 µM.
`Cn1cc(-c2cc(Oc3ccc(NC(=O)N4CCN(CC(F)(F)F)C4=O)nc3)ccn2)cn1` [Example 48, N-(5-((2-(1-methyl-1H-pyrazol-4-yl)pyridin-4-yl)oxy)pyridin-2-yl)-2-oxo-3-(2,2,2-trifluoroethyl)imidazolidine-1-carboxamide]: the IC50 in experiment [1] was 0.1 to 1 µM; in experiment [2], less than 0.01 µM; in the experiment on osteoclast precursors (Osteoclast) it was less than 0.01 µM; with M-NFS-60 cells it was 0.01 to 0.1 µM; in experiment [3] (read-out: uFMS), less than 0.01 µM.
As for `Cn1cc(-c2cc(Oc3ccc(NC(=O)N4CCN(C5COC5)C4=O)nc3)ccn2)cn1` [Example 50, N-(5-((2-(1-methyl-1H-pyrazol-4-yl)pyridin-4-yl)oxy)pyridin-2-yl)-3-(oxetan-3-yl)-2-oxoimidazolidine-1-carboxamide], the IC50 in experiment [1] is greater than 1 µM; in experiment [2], 0.01 to 0.1 µM; in the experiment with osteoclast precursors (Osteoclast) it was 0.01 to 0.1 µM; in the experiment with M-NFS-60 cells, 0.01 to 0.1 µM; in experiment [3] (read-out: uFMS) it was 0.01 to 0.1 µM.
As for `Cc1cc(-c2cc(Oc3ccc(NC(=O)N4CCN(C5CCOCC5)C4=O)nc3)ccn2)ccn1` [Example 51, N-(5-((2′-methyl-[2,4′-bipyridin]-4-yl)oxy)pyridin-2-yl)-2-oxo-3-(tetrahydro-2H-pyran-4-yl)imidazolidine-1-carboxamide], the IC50 in experiment [1] is greater than 1 µM; in experiment [2], 0.01 to 0.1 µM; with osteoclast precursors (Osteoclast), 0.1 to 1 µM; in the experiment on M-NFS-60 cells, 0.01 to 0.1 µM; in experiment [3] (read-out: uFMS), 0.01 to 0.1 µM.
As for `Cc1ccc(-c2cc(Oc3ccc(NC(=O)N4CCN(CC(F)(F)F)C4=O)nc3C)ccn2)cn1` [Example 53, N-(6-methyl-5-((6′-methyl-[2,3′-bipyridin]-4-yl)oxy)pyridin-2-yl)-2-oxo-3-(2,2,2-trifluoroethyl)imidazolidine-1-carboxamide], the IC50 was greater than 1 µM in experiment [1]; greater than 1 µM in experiment [2]; 0.1 to 1 µM in the experiment on osteoclast precursors (Osteoclast); 0.01 to 0.1 µM in the experiment on M-NFS-60 cells; 0.01 to 0.1 µM in experiment [3] (read-out: uFMS).
For the compound `Cn1cc(-c2cc(Oc3ccc(NC(=O)N4CCN(CC#N)C4=O)nc3)ccn2)cn1` [Example 55, 3-(cyanomethyl)-N-(5-((2-(1-methyl-1H-pyrazol-4-yl)pyridin-4-yl)oxy)pyridin-2-yl)-2-oxoimidazolidine-1-carboxamide], the IC50 was greater than 1 µM in experiment [1]; greater than 1 µM in experiment [2]; 0.1 to 1 µM with osteoclast precursors (Osteoclast); 0.1 to 1 µM with M-NFS-60 cells; 0.1 to 1 µM in experiment [3] (read-out: uFMS).
As to `COC[C@@H](C)N1CCN(C(=O)Nc2ccc(Oc3ccnc(-c4cnn(C)c4)c3)cn2)C1=O` [Example 59, (R)-3-(1-methoxypropan-2-yl)-N-(5-((2-(1-methyl-1H-pyrazol-4-yl)pyridin-4-yl)oxy)pyridin-2-yl)-2-oxoimidazolidine-1-carboxamide], the IC50 in experiment [1] was 0.1 to 1 µM; in experiment [2], 0.01 to 0.1 µM; in the experiment with osteoclast precursors (Osteoclast) it was less than 0.01 µM; in the experiment on M-NFS-60 cells, less than 0.01 µM; in experiment [3] (read-out: uFMS), less than 0.01 µM.
As for `Cc1ncc(-c2cc(Oc3ccc(NC(=O)N4CCN(C5CCOCC5)C4=O)nc3)ccn2)s1` [Example 60, N-(5-((2-(2-methylthiazol-5-yl)pyridin-4-yl)oxy)pyridin-2-yl)-2-oxo-3-(tetrahydro-2H-pyran-4-yl)imidazolidine-1-carboxamide], the IC50 is 0.1 to 1 µM in experiment [1]; 0.01 to 0.1 µM in experiment [2]; 0.01 to 0.1 µM in the experiment with osteoclast precursors (Osteoclast); 0.01 to 0.1 µM in the experiment with M-NFS-60 cells; 0.01 to 0.1 µM in experiment [3] (read-out: uFMS).
`Cn1cc(-c2cc(Oc3cc(F)c(NC(=O)N4CCN(CC(O)C(C)(C)C)C4=O)cc3Cl)ccn2)cn1` (stereo not shown) [Example 112, N-(5-chloro-2-fluoro-4-((2-(1-methyl-1H-pyrazol-4-yl)pyridin-4-yl)oxy)phenyl)-3-(2-hydroxy-3,3-dimethylbutyl)-2-oxoimidazolidine-1-carboxamide]: the IC50 was 0.1 to 1 µM in experiment [1], 0.01 to 0.1 µM in experiment [2], 0.1 to 1 µM in the experiment on M-NFS-60 cells and 0.01 to 0.1 µM in experiment [3] (read-out: uFMS).
